Reference: patent US10370642B2, “Hematopoietic progenitor cell populations having affinity for E-selectin / L-selectin” (priority 2000, dated 2019)

Key:
Type in all cases: cell-based, human
KG1a cells [1] = assay: L-selectin ligand activity of treated KG1a cells, parallel-plate flow chamber; conditions: thoracic duct lymphocytes, shear stress 4.4 dynes/cm^2
Description: Leukocyte tethering and rolling on human HC monolayers was visualized by video microscopy in real time using the parallel-plate flow chamber prepared in the following manner. Prior to experimentation, leukocytes were washed twice in HBSS and then suspended at 10^7/ml in HBSS/10 mM HEPES/2mMCaCl2 (H/H/Ca^++). […] To prepare human HC monolayers (100% confluent), suspensions of HCs (KG 1a, HL60, RPMI 8402, K562) at 2×10^6/ml RPMI-1640 without Na+Bicarbonate/2% FBS were seeded in 6-well plates at 5×10^6/well, centrifuged to layer cells then fixed in 3% glutaraldehyde. Reactive aldehyde groups were blocked in 0.2M lysine, and plated cells were suspended H/H/Ca^++. To assess the dependence of binding by sialic acid residues on L-selectin ligands, cells were pretreated with Vibrio cholerae neuraminidase (0.1 U/mlH/H/Ca^++ for lhr at 37° C.). To examine the contribution of sialomucins (including PSGL-1) and PSGL-1 alone, OSGE (60 μg/ml H/H/Ca^++ for lhr at 37° C.) or mocarhagin (10 μg/ml for 20 min at 37° C.) treatments were performed, respectively. […] The number of leukocytes rolling in one frame of five independent fields under 200× magnification at shear stress of 0.2, 0.4, 0.8, 2.2, 4.4, 8.8, 17.6 and 26.4 dynes/cm^2 were quantified. A minimum of 3 experiments was performed over the entire range of shear stress and results were expressed as the mean±standard deviation.

KG1a cells [2] = assay: CHO-E cell rolling on glutaraldehyde-fixed KG1a monolayers; conditions: 2.8 dynes/cm^2; EDTA 5 mM; HECA 452 50 μg/ml
Description: (§1) E-selectin-mediated adhesive interactions, under defined shear stress, were examined between hematopoietic cell monolayers and suspensions of CHO-E (Chinese hamster ovary cells stably transfected with full-length cDNA encoding human E-selectin) in flow. CHO-E and empty vector constructs (CHO-Mock) were maintained in MEM 10% FBS/1% Penicillin/Streptomycin (Life Technologies, Inc.) and HAM's F-12 (Cellgro, Inc.)/5% FCS/1% Penicillin/Streptomycin, respectively. CHO-E cell tethering and rolling on hematopoietic cell monolayers was visualized by video microscopy in real time using the parallel-plate flow chamber. […] To prepare hematopoietic cell monolayers>90% confluent, suspensions of cells (KG1a, HL60, K562, or RPMI 8402) at 2×10^6/ml RPMI1640 without NaBicarbonate/2% FBS were cytocentrifuged in […] plates at 5×10^6/well and then fixed in 3% glutaraldehyde. Reactive aldehyde groups were blocked in 0.2M lysine, and plated cells were suspended H/H/Ca++. […] The number of CHO-E/Mock cell rolling on each monolayer was measured in one frame of five independent fields under 10× magnification from multiple experiments. A minimum of 3 experiments was performed and results were expressed as the mean±standard deviation.

HL60 cells = assay: CHO-E cell rolling on glutaraldehyde-fixed HL60 monolayers; conditions: 2.8 dynes/cm^2; EDTA 5 mM; HECA 452 50 μg/ml
Description: as §1

neuraminidase: Vibrio cholerae neuraminidase, cleaves terminal sialic acids
% Control Mean Lymphocyte Binding (KG1a cells [1]): 0.3 % Control
CHO-E cell rolling / E-selectin ligand activity of KG1a cells (KG1a cells [2]): completely inhibited
CHO-E cell rolling / E-selectin ligand activity of HL60 cells (HL60 cells): completely inhibited
